The data set is classed as physicochemical. The following applies: polymerization initiator. An excerpt:
The octanol/water partition coefficient is also expressed as LogPow and is an index representing hydrophobicity (solubility in lipid) of a chemical substance. The measurement method of the octanol/water partition coefficient is basically in accordance with OECD Test Guideline (“C (81) 30 appendix 1” determined by OECD Board of Directors) 107 or Japanese Industrial Standards Z7260-107 (2000), “Determination of partition coefficient (1-octanol/water)-Shake flask method”.

`CC(C)(C)OO` [t-butyl hydroperoxide]: the octanol/water partition coefficient was −1.3.
